Test results as given in US20050014830A1 (priority 2003, published 2005).
Like-named read-outs stand apart in the source and are kept apart here.

How the values were obtained:
[1] = tested on: SARS virus; design: species or system SARS virus (coronavirus)
[2] = tested on: enterovirus
[3] = tested on: Serratia bacterium; design: species or system Serratia species

SMILES: O=C(O)CCCCCCCO [8-hydroxyoctanoic acid]
- conformation of the SARS virion (AFM picture) ([1]; FIG. 9B, a few minutes after treatment): disruption
- conformation of the SARS virion (AFM picture) ([1]; FIG. 9C, a few more minutes into treatment): collapsed further more
- conformation of the SARS virion (AFM picture) ([1]; FIG. 9D, final stage of treatment): completely killed
- AFM height of the enterovirus virion after treatment [2]: about 1,300 nm
- surface roughness of the bacterium measured by AFM [3]: increased
